This note sets out measurements from PubChem BioAssay AID330 (DTP/NCI, 2004).

This test has as its system P388 leukemia ip, CD2F1 mice, survival T/C. As to the kind of experiment: NCI In Vivo Anticancer Drug Screen. Data for tumor model P388 Leukemia (intraperitoneal) in CD2F1 (CDF1) mice. The note with it: endpoint: median survival time, higher = longer survival. Summed up:
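Mice carrying the transplanted tumor received test compound or vehicle. Survival was recorded in each group, and the value is the treated-group measurement divided by that of the vehicle-treated control group.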

Where [1] appears, read: dose: 50.0 mg/kg/injection, schedule: Q01DX009 (ip), vehicle: saline.
Setting [2] is: dose: 100.0 mg/kg/injection, schedule: Q01DX009 (ip), vehicle: saline.
The mark [3] stands for this setting: dose: 200.0 mg/kg/injection, schedule: Q01DX009 (ip), vehicle: saline.
The mark [4] stands for this setting: dose: 60.0 mg/kg/injection, schedule: Q01DX005 (ip), vehicle: saline with Tween-80.
Where [5] appears, read: dose: 120.0 mg/kg/injection, schedule: Q01DX005 (ip), vehicle: saline with Tween-80.
[6] abbreviates: dose: 240.0 mg/kg/injection, schedule: Q01DX005 (ip), vehicle: saline with Tween-80.
The mark [7] stands for this setting: dose: 50.0 mg/kg/injection, schedule: Q01DX005 (ip), vehicle: Klucel (hydroxypropylcellulose) (HPC).
Where [8] appears, read: dose: 100.0 mg/kg/injection, schedule: Q01DX005 (ip), vehicle: Klucel (hydroxypropylcellulose) (HPC).
Setting [9] is: dose: 100.0 mg/kg/injection, schedule: Q01DX009 (ip), vehicle: saline with Tween-80.
The mark [10] stands for this setting: dose: 200.0 mg/kg/injection, schedule: Q01DX009 (ip), vehicle: saline with Tween-80.
Where [11] appears, read: dose: 60.0 mg/kg/injection, schedule: Q01DX005 (ip), vehicle: Klucel (hydroxypropylcellulose) (HPC).
[12] abbreviates: dose: 120.0 mg/kg/injection, schedule: Q01DX005 (ip), vehicle: Klucel (hydroxypropylcellulose) (HPC).
The mark [13] stands for this setting: dose: 240.0 mg/kg/injection, schedule: Q01DX005 (ip), vehicle: Klucel (hydroxypropylcellulose) (HPC).
Setting [14] is: dose: 100.0 mg/kg/injection, schedule: Q04DX002 (ip), vehicle: saline with Tween-80.
[15] abbreviates: dose: 200.0 mg/kg/injection, schedule: Q04DX002 (ip), vehicle: saline with Tween-80.
The mark [16] stands for this setting: dose: 200.0 mg/kg/injection, schedule: Q01DX005 (ip), vehicle: Klucel (hydroxypropylcellulose) (HPC).

Values joined by “and” are separate entries in the source; they are usually repeats but may differ in a detail not shown here. Identical values can stand only once. Inconclusive results and toxic doses are left out.

For `C[Si](C)(C)[Si](C)(C)C`, the T/C was 98 % of control under setting [1], 111 % of control under setting [2] and 102 % of control under setting [3].
With `COc1cc2ccnc(CCCc3nccc4cc(OC)c(OC)cc34)c2cc1OC`, the T/C (dose: 25.0 mg/kg/injection, schedule: Q04DX002 (ip), vehicle: Klucel (hydroxypropylcellulose) (HPC)) was 101 % of control; the T/C (dose: 50.0 mg/kg/injection, schedule: Q04DX002 (ip), vehicle: Klucel (hydroxypropylcellulose) (HPC)) is 95 % of control; the T/C (dose: 100.0 mg/kg/injection, schedule: Q04DX002 (ip), vehicle: Klucel (hydroxypropylcellulose) (HPC)) was 101 % of control and 104 % of control.
Turning to `COC(=S)NCCn1c([N+](=O)[O-])cnc1C`, the T/C is, setting by setting: (dose: 100.0 mg/kg/injection, schedule: Q01DX001 (ip), vehicle: saline with Tween-80) 110 % of control; (dose: 200.0 mg/kg/injection, schedule: Q01DX001 (ip), vehicle: saline with Tween-80) 100 % of control; (dose: 400.0 mg/kg/injection, schedule: Q01DX001 (ip), vehicle: saline with Tween-80) 108 % of control.
Take `Nc1nc(-c2cc(Cl)cc(Cl)c2)cc(-c2cc(-c3cc(Cl)cc(Cl)c3)nc(N)n2)n1`: the T/C reads like this: under setting [4], 100 % of control; under setting [5], 106 % of control; under setting [6], 96 % of control.
Regarding `Cc1nc(Nc2ccccc2)c2c(C)c[nH]c2n1`, the T/C runs as follows: under setting [7], 100 % of control; under setting [8], 94 % of control.
Consider `COc1cc2cc3c4cc(OC)c(OC)cc4cc[n+]3c(CCC(=O)O)c2cc1OC`, for which the T/C under setting [9] was 96 % of control; the T/C under setting [10] is 96 % of control; the T/C (dose: 400.0 mg/kg/injection, schedule: Q01DX009 (ip), vehicle: saline with Tween-80) was 94 % of control.
Regarding `C/C=C1\CC2(OC1=O)C(=O)NC(=O)NC2=O`, the T/C under setting [1] is 103 % of control and the T/C under setting [2] is 94 % of control.
As to `CC(C)C(=O)CC1(O)C(=O)Nc2ccc([N+](=O)[O-])cc21` (stereo not given), the T/C under setting [4] is 101 % of control, the T/C under setting [5] is 93 % of control and the T/C under setting [6] was 91 % of control.
Regarding `Clc1nc(Cl)nc(N2CCCc3ccccc32)n1`, the T/C runs as follows: (dose: 50.0 mg/kg/injection, schedule: Q01DX009 (ip), vehicle: saline with Tween-80) 89 % of control; under setting [9], 96 % of control; under setting [10], 93 % of control.
As to `Cc1cnc(NCCCCCCCCNc2ncc(C)c(-c3ccccc3O)n2)nc1-c1ccccc1O`, the T/C was 95 % of control (dose: 100.0 mg/kg/injection, schedule: Q04DX003 (ip), vehicle: saline); 93 % of control (dose: 200.0 mg/kg/injection, schedule: Q04DX003 (ip), vehicle: saline); 89 % of control (dose: 400.0 mg/kg/injection, schedule: Q04DX003 (ip), vehicle: saline).
As for `COc1cc(C2c3cc4c(cc3OC(C)(N3CCCC3)C2C)OCO4)cc(OC)c1OC` (stereo not given), the T/C reads like this: under setting [11], 100 % of control; under setting [12], 102 % of control; under setting [13], 105 % of control.
In the case of `CC[OH+]CC[OH+]CC[OH+]C1CCCC2CCC[N-]C21.[Cl][Cu][Cl]` (stereo not given), the T/C by setting is: (dose: 6.25 mg/kg/injection, schedule: Q01DX005 (ip), vehicle: Klucel (hydroxypropylcellulose) (HPC)) 97 % of control; (dose: 12.5 mg/kg/injection, schedule: Q01DX005 (ip), vehicle: Klucel (hydroxypropylcellulose) (HPC)) 92 % of control.
`Cc1cc2c(cc1C)NC1C(=O)C(c3ccc(Cl)c(Cl)c3)OC1=N2` (stereo not given): the T/C (dose: 30.0 mg/kg/injection, schedule: Q01DX005 (ip), vehicle: Klucel (hydroxypropylcellulose) (HPC)) was 91 % of control; the T/C under setting [11] is 91 % of control; the T/C under setting [12] was 93 % of control; the T/C under setting [13] is 86 % of control.
`CNC(=O)OCc1c(-c2ccccc2)c(-c2ccccc2)n(-c2ccccc2)c1COC(=O)NC`: the T/C (dose: 12.5 mg/kg/injection, schedule: Q01DX009 (ip), vehicle: distilled water + Tween-80) is 110 % of control; the T/C (dose: 25.0 mg/kg/injection, schedule: Q01DX009 (ip), vehicle: distilled water + Tween-80) is 112 % of control and 117 % of control; the T/C (dose: 100.0 mg/kg/injection, schedule: Q01DX009 (ip), vehicle: distilled water + Tween-80) is 155 % of control; the T/C (dose: 200.0 mg/kg/injection, schedule: Q01DX009 (ip), vehicle: distilled water + Tween-80) was 171 % of control and 175 % of control.
As to `C[S+](C)C`, the T/C under setting [2] is 110 % of control; the T/C under setting [3] was 110 % of control; the T/C (dose: 400.0 mg/kg/injection, schedule: Q01DX009 (ip), vehicle: saline) was 110 % of control.
Turning to `Nc1ncnc2c1ncn2C1OC(CO)C(N)C1O` (stereo not given), the T/C is, setting by setting: under setting [14], 102 % of control; under setting [15], 102 % of control; (dose: 400.0 mg/kg/injection, schedule: Q04DX002 (ip), vehicle: saline with Tween-80) 105 % of control.
Turning to `N#CCCSc1nnc(N)s1`, the T/C is 108 % of control (dose: 50.0 mg/kg/injection, schedule: Q01DX009 (ip), vehicle: Klucel (hydroxypropylcellulose) (HPC)); 103 % of control (dose: 100.0 mg/kg/injection, schedule: Q01DX009 (ip), vehicle: Klucel (hydroxypropylcellulose) (HPC)); 104 % of control (dose: 200.0 mg/kg/injection, schedule: Q01DX009 (ip), vehicle: Klucel (hydroxypropylcellulose) (HPC)); 100 % of control (dose: 400.0 mg/kg/injection, schedule: Q01DX009 (ip), vehicle: Klucel (hydroxypropylcellulose) (HPC)).
Regarding `Cc1nc2ccccc2c2nnc(SCC(=O)N(Cc3ccccc3)c3ccccc3)n12`, the T/C was 99 % of control under setting [7], 100 % of control under setting [8] and 102 % of control under setting [16].
Regarding `CC1OC(C)(C)OC1C(=O)OCc1ccccc1` (stereo not given), the T/C by setting is: (dose: 25.0 mg/kg/injection, schedule: Q01DX005 (ip), vehicle: water) 96 % of control; (dose: 50.0 mg/kg/injection, schedule: Q01DX005 (ip), vehicle: water) 105 % of control; (dose: 100.0 mg/kg/injection, schedule: Q01DX005 (ip), vehicle: water) 100 % of control; (dose: 200.0 mg/kg/injection, schedule: Q01DX005 (ip), vehicle: water) 100 % of control; (dose: 400.0 mg/kg/injection, schedule: Q01DX005 (ip), vehicle: water) 100 % of control.
Regarding `COC(=O)NC1=Nc2ccccc2N(C(=O)C(C)C)S1`, the T/C reads like this: under setting [7], 100 % of control; under setting [8], 101 % of control; under setting [16], 97 % of control.
Turning to `C=C(Br)C(=O)N1CCCC1C(=O)NC` (stereo not given), the T/C was 110 % of control (dose: 25.0 mg/kg/injection, schedule: Q01DX009 (ip), vehicle: saline); 91 % of control under setting [1]; 98 % of control under setting [2].
Consider `CCOC(C#CC(C)=O)OCC`, for which the T/C is, setting by setting: (dose: 60.0 mg/kg/injection, schedule: Q01DX005 (ip), vehicle: saline) 106 % of control; (dose: 120.0 mg/kg/injection, schedule: Q01DX005 (ip), vehicle: saline) 103 % of control; (dose: 240.0 mg/kg/injection, schedule: Q01DX005 (ip), vehicle: saline) 103 % of control.
Take `COc1ccc(-c2oc3cc(OC)c(OC)c(O)c3c(=O)c2O)cc1O`: the T/C runs as follows: (dose: 25.0 mg/kg/injection, schedule: Q04DX002 (ip), vehicle: saline with Tween-80) 105 % of control; (dose: 50.0 mg/kg/injection, schedule: Q04DX002 (ip), vehicle: saline with Tween-80) 110 % of control; under setting [14], 103 % of control; under setting [15], 102 % of control.
`CN(C)CCN1c2ccccc2Sc2ccc3ccccc3c21`: the T/C was 104 % of control (dose: 50.0 mg/kg/injection, schedule: Q01DX005 (ip), vehicle: saline + Tween-80 + alcohol); 107 % of control (dose: 100.0 mg/kg/injection, schedule: Q01DX005 (ip), vehicle: saline + Tween-80 + alcohol); 107 % of control (dose: 200.0 mg/kg/injection, schedule: Q01DX005 (ip), vehicle: saline + Tween-80 + alcohol).
